In patent publication US12612409B2, “Pyrrolopyrimidines as CFTR potentiators” (Cystic Fibrosis Foundation, priority 2016, dated 2026):

What was measured:
[1] = target: T1, recombinant F508del V470 CFTR in Fischer rat thyroid (FRT) cells (Homo sapiens, UniProt P13569, DEL508-508); experiment: FRT ion flux assay of F508del CFTR potentiation; type: cell-based; conditions: FRT cells expressing F508del V470 CFTR, forskolin 20 uM, 27° C. pre-incubation
T1 construct: expressed in transfected cells
Procedure, shortened: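 FRT cells co-expressing F508del V470 CFTR and halide-sensitive YFP, temperature-corrected at 27° C for 16-24 h, then treated 30 min with compound plus 20 uM forskolin. Iodide addition quenches YFP, read after ~21 s; ratio scaled to DMSO (0%) and positive control potentiator (100%).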

[2] = target: T2, CFTR in F508del/F508del primary CF hBE cells (Homo sapiens, UniProt P13569, DEL508-508); experiment: Ussing chamber electrophysiology assay of CFTR potentiation in F508del/F508del CF bronchial epithelial cells (27° C.); type: cell-based
T2 construct: Primary cystic fibrosis human bronchial epithelial (CF hBE) cells were expanded and cultured; endogenous in cells; host or cells: primary CF human bronchial epithelial cells, genotype F508del/F508del
T2 sequence (P13569 with tags, fused parts or gaps DEL508-508): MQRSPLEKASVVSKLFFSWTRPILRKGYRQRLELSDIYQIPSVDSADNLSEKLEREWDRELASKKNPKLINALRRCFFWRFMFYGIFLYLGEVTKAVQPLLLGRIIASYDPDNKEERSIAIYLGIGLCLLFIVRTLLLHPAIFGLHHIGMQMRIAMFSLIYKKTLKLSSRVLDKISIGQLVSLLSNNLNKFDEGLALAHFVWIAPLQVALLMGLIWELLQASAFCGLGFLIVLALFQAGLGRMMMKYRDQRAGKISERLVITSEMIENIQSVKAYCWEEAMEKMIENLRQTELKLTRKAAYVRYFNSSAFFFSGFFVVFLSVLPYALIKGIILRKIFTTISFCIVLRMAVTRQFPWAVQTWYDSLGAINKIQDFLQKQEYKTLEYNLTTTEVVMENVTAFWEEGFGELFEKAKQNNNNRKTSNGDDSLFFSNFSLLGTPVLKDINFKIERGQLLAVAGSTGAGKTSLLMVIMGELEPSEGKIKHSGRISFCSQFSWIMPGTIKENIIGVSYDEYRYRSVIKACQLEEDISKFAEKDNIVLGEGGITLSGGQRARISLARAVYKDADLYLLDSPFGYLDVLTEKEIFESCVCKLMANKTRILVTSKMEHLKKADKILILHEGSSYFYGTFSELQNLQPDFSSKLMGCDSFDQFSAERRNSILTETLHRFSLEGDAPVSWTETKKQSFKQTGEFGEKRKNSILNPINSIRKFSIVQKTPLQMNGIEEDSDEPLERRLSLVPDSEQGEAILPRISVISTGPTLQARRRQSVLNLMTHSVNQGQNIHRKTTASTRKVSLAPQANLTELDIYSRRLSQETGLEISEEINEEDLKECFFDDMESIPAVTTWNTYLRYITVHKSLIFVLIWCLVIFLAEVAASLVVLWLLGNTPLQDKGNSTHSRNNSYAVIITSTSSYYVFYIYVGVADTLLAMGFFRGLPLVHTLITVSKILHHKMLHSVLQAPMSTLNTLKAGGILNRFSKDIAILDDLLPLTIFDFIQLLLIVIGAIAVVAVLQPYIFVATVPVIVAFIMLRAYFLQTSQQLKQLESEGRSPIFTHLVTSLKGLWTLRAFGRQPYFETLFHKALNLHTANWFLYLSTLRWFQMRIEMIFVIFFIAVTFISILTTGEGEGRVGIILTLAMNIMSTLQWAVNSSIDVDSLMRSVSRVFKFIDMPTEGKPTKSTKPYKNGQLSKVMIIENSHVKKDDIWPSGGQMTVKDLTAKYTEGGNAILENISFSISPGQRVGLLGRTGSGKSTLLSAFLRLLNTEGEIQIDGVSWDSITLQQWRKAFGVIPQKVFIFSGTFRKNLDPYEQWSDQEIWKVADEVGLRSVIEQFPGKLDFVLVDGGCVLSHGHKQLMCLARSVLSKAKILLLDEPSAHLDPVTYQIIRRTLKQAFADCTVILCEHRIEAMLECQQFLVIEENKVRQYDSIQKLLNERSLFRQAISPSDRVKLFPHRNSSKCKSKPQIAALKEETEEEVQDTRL
Procedure, shortened: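 Well-differentiated primary CF hBE cells (>30 days air/liquid interface) in Ussing chambers, HEPES saline both sides, voltage clamped to zero. Amiloride 30 uM, forskolin 10 uM, four rising compound concentrations, then CFTRinh-172 20 uM added at 20-25 min intervals. Short-circuit current scaled to DMSO (0%) and a positive control potentiator maximum (100%).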

T1 sequence (P13569 with tags, fused parts or gaps DEL508-508): as above

EC50 [1] [nM] | EC50 [2] [nM] | Structure (SMILES)
296 | 97.1 | CCC(c1cn(-c2ccc(F)cc2F)nn1)n1cc(-c2cc(F)cnc2OC)c2c(N)ncnc21 (single isomer, unassigned; enantiomer 1) [Example 163, 7-{1-[1-(2,4-Difluorophenyl)-1H-1,2,3-triazol-4-yl]propyl}-5-(5-fluoro-2-methoxypyridin-3-yl)-7H-pyrrolo[2,3-d]pyrimidin-4-amine, enantiomer 1]
25.2 | 58.8 | CC(c1cn(-c2ccccc2F)nn1)n1cc(-c2cnc(C(F)(F)F)nc2)c2c(N)ncnc21 (centres unmarked) [Example 216, 7-{1-[1-(2-Fluorophenyl)-1H-1,2,3-triazol-4-yl]ethyl}-5-[2-(trifluoromethyl)pyrimidin-5-yl]-7H-pyrrolo[2,3-d]pyrimidin-4-amine]
99.6 | 38 | CCOc1ccc(-c2cn(Cc3cn(-c4ccccc4F)nn3)c3ncnc(N)c23)cc1F [Example 75, 5-(4-Ethoxy-3-fluorophenyl)-7-{[1-(2-fluorophenyl)-1H-1,2,3-triazol-4-yl]methyl}-7H-pyrrolo[2,3-d]pyrimidin-4-amine]
8.18 | 4.58 | CCC(c1cn(-c2ccc(F)cc2F)nn1)n1cc(-c2cc(F)cnc2OC)c2c(N)ncnc21 (single isomer, unassigned; enantiomer 2) [Example 164, 7-{1-[1-(2,4-Difluorophenyl)-1H-1,2,3-triazol-4-yl]propyl}-5-(5-fluoro-2-methoxypyridin-3-yl)-7H-pyrrolo[2,3-d]pyrimidin-4-amine, enantiomer 2]
1120 | 136 | CC(c1cc(-c2cccc(F)c2)no1)n1cc(-c2ccc(Cl)cc2)c2c(N)ncnc21 (centres unmarked) [Example 267, 5-(4-Chlorophenyl)-7-{1-[3-(3-fluorophenyl)-1,2-oxazol-5-yl]ethyl}-7H-pyrrolo[2,3-d]pyrimidin-4-amine]
3690 | 3500 | Nc1ncnc2c1c(-c1ccc(Cl)cc1)cn2Cc1ncc(-c2ccccc2F)[nH]1 [Example 285, 5-(4-Chlorophenyl)-7-{[5-(2-fluorophenyl)-1H-imidazol-2-yl]methyl}-7H-pyrrolo[2,3-d]pyrimidin-4-amine]
36 | 26 | CC(c1cn(-c2ccccc2F)nn1)n1cc(-c2ccc(C#N)c(F)c2)c2c(N)ncnc21 (single isomer, unassigned; enantiomer 2) [Example 116, 4-(4-Amino-7-{1-[1-(2-fluorophenyl)-1H-1,2,3-triazol-4-yl]ethyl}-7H-pyrrolo[2,3-d]pyrimidin-5-yl)-2-fluorobenzonitrile, enantiomer 2]
28.9 | 45.3 | CCC(c1cn(-c2ccc(F)cc2)nn1)n1cc(-c2cncnc2OC)c2c(N)ncnc21 (single isomer, unassigned; enantiomer 1) [Example 149, (+) 7-{1-[1-(4-Fluorophenyl)-1H-1,2,3-triazol-4-yl]propyl}-5-(4-methoxypyrimidin-5-yl)-7H-pyrrolo[2,3-d]pyrimidin-4-amine, enantiomer 1]
35.2 | 15.5 | CC(c1cnn(-c2ccc(F)cc2F)c1)n1c(C#N)c(-c2cnc(C(F)(F)F)nc2)c2c(N)ncnc21 (single isomer, unassigned) [Example 8, 4-Amino-7-{1-[1-(2,4-difluorophenyl)-1H-pyrazol-4-yl]ethyl}-5-[2-(trifluoromethyl)pyrimidin-5-yl]-7H-pyrrolo[2,3-d] pyrimidine-6-carbonitrile]
182 | 445 | CCC(c1cn(-c2ccc(F)c(F)c2)nn1)n1cc(-c2cncnc2OC)c2c(N)ncnc21 (single isomer, unassigned; enantiomer 2) [Example 152, (−) 7-{1-[1-(3,4-Difluorophenyl)-1H-1,2,3-triazol-4-yl]propyl}-5-(4-methoxypyrimidin-5-yl)-7H-pyrrolo[2,3-d]pyrimidin-4-amine, enantiomer 2]
